{"source": "patent US20170298073A1", "about": "“SALTS, CO-CRYSTALS, AMORPHOUS FORMS, AND CRYSTALLINE FORMS OF A CO-ACTIVATOR-ASSOCIATED ARGININE METHYLTRANSFERASE 1 (CARM1) INHIBITOR” (Epizyme, Inc, priority 2014, published 2017)", "test": "Thermodynamic solubility at room temperature", "format": "physicochemical", "conditions": "25 °C, thermodynamic from solid", "protocol": "In an exemplary experiment, the thermodynamic solubilities of the solid forms described herein were determined at room temperature (RT, 25±3° C.)."}
{"smiles": "CNC[C@@H](O)COc1ccc(Cl)c(-c2nc(-c3c(C)noc3C)c(C)c(N3CC4(CCN(C(=O)OC)CC4)C3)n2)c1", "note": "[Form A]", "values": [{"measurement": "solubility", "setting": "organic solvent or mixture, solvent 1,4-Dioxane", "result": "> 40", "unit": "mg/mL"}, {"measurement": "solubility", "setting": "organic solvent or mixture, solvent 2-Methyl-tetrahydrofuran", "result": "> 50", "unit": "mg/mL"}, {"measurement": "solubility", "setting": "organic solvent or mixture, solvent Acetic acid", "result": "> 44", "unit": "mg/mL"}, {"measurement": "solubility", "setting": "organic solvent or mixture, solvent Acetone", "result": "> 48", "unit": "mg/mL"}, {"measurement": "solubility", "setting": "organic solvent or mixture, solvent Acetonitrile", "result": "> 42", "unit": "mg/mL"}, {"measurement": "solubility", "setting": "organic solvent or mixture, solvent CHCl3", "result": "> 38", "unit": "mg/mL"}, {"measurement": "solubility", "setting": "organic solvent or mixture, solvent Dichloromethane", "result": "> 36", "unit": "mg/mL"}, {"measurement": "solubility", "setting": "organic solvent or mixture, solvent Dimethyl sulfoxide", "result": "> 38", "unit": "mg/mL"}, {"measurement": "solubility", "setting": "organic solvent or mixture, solvent Dimethylacetamide", "result": "> 42", "unit": "mg/mL"}, {"measurement": "solubility", "setting": "organic solvent or mixture, solvent EtOAc", "result": "> 50", "unit": "mg/mL"}, {"measurement": "solubility", "setting": "organic solvent or mixture, solvent EtOH", "result": "> 40", "unit": "mg/mL"}, {"measurement": "solubility", "setting": "organic solvent or mixture, solvent Isopropanol", "result": "> 36", "unit": "mg/mL"}, {"measurement": "solubility", "setting": "organic solvent or mixture, solvent Isopropyl acetate", "result": "> 36", "unit": "mg/mL"}, {"measurement": "solubility", "setting": "organic solvent or mixture, solvent MeOH", "result": "> 38", "unit": "mg/mL"}, {"measurement": "solubility", "setting": "organic solvent or mixture, solvent Methyl isobutyl ketone", "result": "> 34", "unit": "mg/mL"}, {"measurement": "solubility", "setting": "organic solvent or mixture, solvent Methyl-tert-butyl ether", "result": "< 1.1", "unit": "mg/mL"}, {"measurement": "solubility", "setting": "organic solvent or mixture, solvent N-methyl-2-pyrrolidone", "result": "> 44", "unit": "mg/mL"}, {"measurement": "solubility", "setting": "organic solvent or mixture, solvent THF", "result": "> 36", "unit": "mg/mL"}, {"measurement": "solubility", "setting": "organic solvent or mixture, solvent Toluene", "result": "> 38", "unit": "mg/mL"}, {"measurement": "solubility", "setting": "organic solvent or mixture, solvent n-Heptane", "result": "< 1.1", "unit": "mg/mL"}, {"measurement": "solubility", "setting": "organic solvent or mixture, solvent n-Heptane/THF (1:1 by volume)", "result": "14 to 21", "unit": "mg/mL"}, {"measurement": "solubility", "setting": "organic solvent or mixture, solvent n-Heptane/THF (1:2 by volume)", "result": "> 42", "unit": "mg/mL"}, {"measurement": "solubility", "setting": "organic solvent or mixture, solvent n-Heptane/THF (1:3 by volume)", "result": "> 40", "unit": "mg/mL"}, {"measurement": "solubility", "setting": "organic solvent or mixture, solvent n-Heptane/THF (2:1 by volume)", "result": "2.6 to 3", "unit": "mg/mL"}, {"measurement": "solubility", "setting": "organic solvent or mixture, solvent n-Heptane/THF (4:1 by volume)", "result": "< 1.6", "unit": "mg/mL"}, {"measurement": "solubility", "setting": "water, solvent H2O", "result": "< 1.1", "unit": "mg/mL"}]}
